# Results: BindingDB's records for patent US20240109893 (Shanghai Kechow Pharma, 2024)
# Molecular target: GTPase KRas [G12C] (Homo sapiens, UniProt P01116, G12C)
# Assay: KRAS G12C-GDP Exchange Assay
# Procedure: 1. […] 2. […] The IC50 (median inhibitory concentration) of the compound was obtained by the following non-linear fitting formula: Y=Bottom+(Top−Bottom)/(1+10^((Log IC50−X)*Hill Slope)), and the data were analyzed by Graphpad 6-0 software.
# GTPase KRas [G12C], sequence (P01116 whole entry G12C): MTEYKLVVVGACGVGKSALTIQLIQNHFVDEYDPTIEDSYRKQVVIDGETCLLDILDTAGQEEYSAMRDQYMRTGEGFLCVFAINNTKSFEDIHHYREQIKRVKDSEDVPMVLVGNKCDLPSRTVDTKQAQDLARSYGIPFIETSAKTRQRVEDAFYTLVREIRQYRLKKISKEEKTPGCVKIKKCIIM
smiles,measurement,value
"C=CC(=O)N1CCN(c2nc(OC[C@@H]3CCCN3C)nc3cc(-c4cccc5cccc(Cl)c45)c(F)cc23)C[C@@H]1CC#N [US20240109893, Example 394]",IC50,1.44 nM
